Assay results from ChEMBL document CHEMBL4359811, “Development of Potent and Selective Pyrazolopyrimidine IRAK4 Inhibitors” (J Med Chem, 2019).
Values after ≈ are worked out from the molar mass of the structure shown.

Key:
[1] = Half-life in mouse at 30 mg/kg, po; assay type: ADME, organism-based; settings: in vivo
[2] = Oral bioavailability in dog at 1 mg/kg; assay type: ADME, organism-based, Canis lupus familiaris; settings: in vivo
[3] = Plasma clearance in monkey at 1 mg/kg, iv; assay type: ADME, organism-based, Macaca mulatta; settings: rhesus monkey
[4] = Half-life in monkey at 1 mg/kg, po; assay type: ADME, organism-based, Macaca mulatta; settings: rhesus monkey, in vivo
[5] = AUC (infinity) in mouse at 10 mg/kg, po; assay type: ADME, organism-based; design: dose 10 mg/kg, route oral, time infinity; settings: in vivo
[6] = AUC (infinity) in mouse at 100 mg/kg, po administered as suspension in MCT; assay type: ADME, organism-based; design: dose 100 mg/kg, time infinity, route oral; settings: in vivo
Mus musculus [7] = assay: In vivo inhibition of IRAK4 in CpG ODN 1826 induced C57BL/6 mouse assessed as blockade of TLR9 signalling by measuring IL-6 levels at 30 mg/kg, po treated 1 hr prior to CpG ODN 1826 stimulation and measured after 1 hr by MSD assay; assay type: functional; design: scale not given: the % may be the effect or the level left
[8] = Cmax in mouse at 300 mg/kg, po administered as suspension in MCT; assay type: ADME, organism-based; design: dose 300 mg/kg, route oral; settings: in vivo
[9] = Cmax in mouse at 30 mg/kg, po; assay type: ADME, organism-based; design: dose 30 mg/kg, route oral; settings: in vivo
[10] = Protein binding in human plasma at 5 uM incubated for 4 hrs by LC-MS/MS analysis; assay type: ADME, cell-free; settings: read-out: PPB (converted)
[11] = Oral bioavailability in mouse at 100 mg/kg administered as suspension in 10% captisol; assay type: ADME, organism-based; settings: in vivo
[12] = Drug concentration in CpG ODN 1826 induced C57BL/6 mouse plasma at 1 to 100 mg/kg, po treated 1 hr prior to CpG ODN 1826 stimulation and measured after 1 hr by MSD assay; assay type: ADME, organism-based; settings: in vivo
[13] = Oral bioavailability in mouse at 300 mg/kg administered as suspension in 10% captisol; assay type: ADME, organism-based; settings: in vivo
[14] = Half-life in mouse at 100 mg/kg, po administered as suspension in MCT; assay type: ADME, organism-based; settings: in vivo
Mus musculus [15] = assay: In vivo inhibition of IRAK4 in CpG ODN 1826 induced C57BL/6 mouse assessed as blockade of TLR9 signalling by measuring TNFalpha levels at 1 mg/kg, po treated 1 hr prior to CpG ODN 1826 stimulation and measured after 1 hr by MSD assay; assay type: functional; design: scale not given: the % may be the effect or the level left
[16] = Plasma clearance in dog at 0.3 mg/kg, iv; assay type: ADME, organism-based, Canis lupus familiaris
[17] = AUC (infinity) in monkey at 1 mg/kg, po; assay type: ADME, organism-based, Macaca mulatta; design: dose 1 mg/kg, time infinity, route oral; settings: rhesus monkey, in vivo
[18] = Protein binding in mouse plasma at 5 uM incubated for 4 hrs by LC-MS/MS analysis; assay type: ADME, cell-free; settings: read-out: PPB (converted)
[19] = Oral bioavailability in rat at 1 mg/kg; assay type: ADME, organism-based; settings: in vivo
[20] = Cmax in dog at 1 mg/kg, po; assay type: ADME, organism-based, Canis lupus familiaris; design: dose 1 mg/kg, route oral; settings: in vivo
[21] = Cmax in mouse at 5 mg/kg, po; assay type: ADME, organism-based; design: dose 5 mg/kg, route oral; settings: in vivo, read-out: Cmax
[22] = Half-life in mouse at 5 mg/kg, po; assay type: ADME, organism-based; settings: in vivo
[23] = AUC (infinity) in dog at 1 mg/kg, po; assay type: ADME, organism-based, Canis lupus familiaris; design: dose 1 mg/kg, time infinity, route oral; settings: in vivo
[24] = Half-life in mouse at 300 mg/kg, po administered as suspension in MCT; assay type: ADME, organism-based; settings: in vivo
[25] = Cmax in mouse at 300 mg/kg, po administered as suspension in 10% captisol; assay type: ADME, organism-based; design: dose 300 mg/kg, route oral; settings: in vivo
[26] = AUC (infinity) in mouse at 100 mg/kg, po administered as suspension in 10% captisol; assay type: ADME, organism-based; design: dose 100 mg/kg, route oral, time infinity; settings: in vivo
[27] = AUC (infinity) in mouse at 5 mg/kg, po; assay type: ADME, organism-based; design: dose 5 mg/kg, route oral, time infinity; settings: in vivo
[28] = AUC (infinity) in mouse at 300 mg/kg, po administered as suspension in MCT; assay type: ADME, organism-based; design: dose 300 mg/kg, route oral, time infinity; settings: in vivo
[29] = Protein binding in monkey plasma at 5 uM incubated for 4 hrs by LC-MS/MS analysis; assay type: ADME, cell-free, Macaca mulatta; settings: rhesus monkey, read-out: PPB (converted)
[30] = Volume of distribution at steady state in rat at 1 mg/kg, iv; assay type: ADME, organism-based; settings: in vivo, read-out: Vdss
[31] = Protein binding in dog plasma at 5 uM incubated for 4 hrs by LC-MS/MS analysis; assay type: ADME, cell-free, Canis lupus familiaris; settings: read-out: PPB (converted)
[32] = Oral bioavailability in mouse at 300 mg/kg administered as suspension in MCT; assay type: ADME, organism-based; settings: in vivo
Mus musculus [33] = assay: In vivo inhibition of IRAK4 in CpG ODN 1826 induced C57BL/6 mouse assessed as blockade of TLR9 signalling by measuring TNFalpha levels at 30 mg/kg, po treated 1 hr prior to CpG ODN 1826 stimulation and measured after 1 hr by MSD assay; assay type: functional; design: scale not given: the % may be the effect or the level left
Mus musculus [34] = assay: In vivo inhibition of IRAK4 in CpG ODN 1826 induced C57BL/6 mouse assessed as blockade of TLR9 signalling by measuring IL-6 levels at 3 mg/kg, po treated 1 hr prior to CpG ODN 1826 stimulation and measured after 1 hr by MSD assay; assay type: functional; design: scale not given: the % may be the effect or the level left
[35] = Kinetic aqueous solubility of the compound in PBS buffer at pH 7.4 incubated for 24 hrs under shaking condition by LC-CLND assay; assay type: physicochemical; settings: PBS buffer, pH 7.4; read-out: Kinetic_solubility
[36] = Apparent permeability from apical to basolateral side in MDCK cells at 10 uM incubated for 180 mins and measured up to 180 min by LC-MS/MS analysis; assay type: ADME, cell-based, Canis lupus familiaris; settings: dog
[37] = Half-life in mouse at 300 mg/kg, po administered as suspension in 10% captisol; assay type: ADME, organism-based; settings: in vivo
[38] = Oral bioavailability in monkey at 1 mg/kg; assay type: ADME, organism-based, Macaca mulatta; settings: rhesus monkey, in vivo
Mus musculus [39] = assay: In vivo inhibition of IRAK4 in CpG ODN 1826 induced C57BL/6 mouse assessed as blockade of TLR9 signalling by measuring TNFalpha levels at 100 mg/kg, po treated 1 hr prior to CpG ODN 1826 stimulation and measured after 1 hr by MSD assay; assay type: functional; design: scale not given: the % may be the effect or the level left
[40] = Cmax in mouse at 100 mg/kg, po administered as suspension in 10% captisol; assay type: ADME, organism-based; design: dose 100 mg/kg, route oral; settings: in vivo
[41] = Oral bioavailability in mouse at 100 mg/kg administered as suspension in MCT; assay type: ADME, organism-based; settings: in vivo
Mus musculus [42] = assay: In vivo inhibition of IRAK4 in CpG ODN 1826 induced C57BL/6 mouse assessed as blockade of TLR9 signalling by measuring IL-6 levels at 10 mg/kg, po treated 1 hr prior to CpG ODN 1826 stimulation and measured after 1 hr by MSD assay; assay type: functional; design: scale not given: the % may be the effect or the level left
[43] = Volume of distribution at steady state in monkey at 1 mg/kg, iv; assay type: ADME, organism-based, Macaca mulatta; settings: rhesus monkey, in vivo, read-out: Vdss
[44] = Plasma clearance in rat at 1 mg/kg, iv; assay type: ADME, organism-based
[45] = Volume of distribution at steady state in dog at 0.3 mg/kg, iv; assay type: ADME, organism-based, Canis lupus familiaris; settings: in vivo, read-out: Vdss
[46] = Half-life in dog at 1 mg/kg, po; assay type: ADME, organism-based, Canis lupus familiaris; settings: in vivo
[47] = Cmax in mouse at 10 mg/kg, po; assay type: ADME, organism-based; design: dose 10 mg/kg, route oral; settings: in vivo
[48] = Cmax in rat at 1 mg/kg, po; assay type: ADME, organism-based; design: dose 1 mg/kg, route oral; settings: in vivo
Mus musculus [49] = assay: In vivo inhibition of IRAK4 in CpG ODN 1826 induced C57BL/6 mouse assessed as blockade of TLR9 signalling by measuring TNFalpha levels at 3 mg/kg, po treated 1 hr prior to CpG ODN 1826 stimulation and measured after 1 hr by MSD assay; assay type: functional; design: scale not given: the % may be the effect or the level left

C[C@]1(CO)Cc2cc(NC(=O)c3cnn4cccnc34)c(N3CCOCC3)cc2O1
half-life [1]: 1.3 h
bioavailability [2]: 30%
clearance [3]: 0.66 L/h/kg
half-life [4]: 3 h
AUC(0-inf) [5]: 10 µM·h
AUC(0-inf) [6]: 15.1 µM·h
Activity (Mus musculus [7]): -78%
Cmax [8]: 10 µM
Cmax [9]: 7.2 µM
fraction unbound at 4 h, 5 µM [10]: 0.44
bioavailability [11]: 49%
Drug uptake [12]: Active
bioavailability [13]: 33%
half-life [14]: 1.6 h
Activity (Mus musculus [15]): 3%
clearance [16]: 0.558 L/h/kg
AUC(0-inf) [17]: 3.3 µM·h
fraction unbound at 4 h, 5 µM [18]: 0.14
bioavailability [19]: 42%
Cmax [20]: 0.2 µM
Cmax [21]: 2.1 µM
half-life [22]: 0.5 h
AUC(0-inf) [23]: 1.4 µM·h
half-life [24]: 23.2 h
Cmax [25]: 14 µM
AUC(0-inf) [26]: 98 µM·h
AUC(0-inf) [27]: 2.3 µM·h
AUC(0-inf) [28]: 63 µM·h
fraction unbound at 4 h, 5 µM [29]: 0.49
Vd [30]: 2.3 L/kg
fraction unbound at 4 h, 5 µM [31]: 0.34
bioavailability [32]: 22%
Activity (Mus musculus [33]): -79%
Activity (Mus musculus [34]): -27%
solubility kinetic at 24 h [35]: 10 µM (≈ 4.09 µg/mL)
Papp A→B at 3 h, 10 µM [36]: 150 nm/s
half-life [37]: 42 h
bioavailability [38]: 85%
Activity (Mus musculus [39]): -89%
Cmax [40]: 9.7 µM
bioavailability [41]: 19%
Activity (Mus musculus [42]): -69%
Vd [43]: 4.4 L/kg
clearance [44]: 0.396 L/h/kg
Vd [45]: 8 L/kg
half-life [46]: 1.7 h
Cmax [47]: 5.4 µM
Cmax [48]: 0.4 µM
Activity (Mus musculus [49]): -18%
